Assay results published in the supplement of paper PMC10290057.
Structures can show the parent of a compound that is named as a salt.

Assays:
[1] = tested on: HCT116; assay: efficacy (fitted maximal change in viability relative to DMSO control); higher = less cytotoxic (negative = loss of viability); settings: 48 h
[2] = tested on: HCT116; assay: AC50 cell viability (CellTiter-Glo); higher = less potent; settings: 48 h
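Throughout, for AC50 cell viability (CellTiter-Glo): HCT116 colorectal carcinoma cells screened at five concentrations per compound, luminescent viability scaled between DMSO wells and empty wells on each plate, curves fitted per compound.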
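Throughout, for efficacy (fitted maximal change in viability relative to DMSO control): Luminescence-based viability readout, five doses per compound, normalized against on-plate DMSO and empty-well controls, followed by dose-response curve fitting for every drug.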

Row | SMILES | efficacy [1] | AC50 cell viability [2]
1 | FC(F)(F)c1ccc(C/N=c2\ccc(Cc3c[nH]c4ncccc34)c[nH]2)cc1 [PLX-647] | -76.1% | 13.2 µM
2 | COc1cc(C(=O)N2CCC(N3CCN(C)CC3)CC2)ccc1Nc1ncc2c(n1)N(C)c1ccccc1C(=O)N2C [LRRK2-IN-1] | -94.6% | 6.61 µM
3 | COC1=CC2=C(C=C1OC)[C@H]3[C@@H](CO2)OC4=C(C=CC5=C4\C=C/C(C)(C)O5)C3=O [Deguelin] | -82.8% | 5.25 µM
4 | Cc1cc(-c2ncc(CC(=O)Nc3ccc(-c4cnccn4)cn3)cc2C)ccn1 [LGK-974] | -52.5% | 16.6 µM
5 | C[C@H](CN(C)C)Oc1nc(Nc2cc3cccc(Cl)c3cn2)cnc1C#N | -31.2% | 3.32 µM
6 | c1cc(-c2cnn3cc(-c4ccc(N5CCNCC5)cc4)cnc23)c2cccnc2c1 | -81.9% | 6.61 µM
7 | COc1ccc2cc3[n+](cc2c1OC)CCc1cc2c(cc1-3)OCO2 [Berberine] | -96.9% | 14.8 µM
8 | CN(C)CCCN\C1=C\2C(=O)N(C)C(=O)\N=C2N(C)C3=C1C=CC=C3 | -67.5% | 5.25 µM
9 | CCN(CC)CCCCNc1ncc2cc(-c3cc(OC)cc(OC)c3)c(NC(=O)NC(C)(C)C)nc2n1 | -117% | 18.6 µM
10 | Cc1csc(-c2nnc(Nc3ccc(Oc4ncccc4-c4ccnc(N)n4)cc3)c3ccccc23)c1 [AMG-900] | -52.9% | 16.6 µM
11 | CCN1CCN(Cc2ccc(Nc3ncc(F)c(-c4cc(F)c5nc(C)n(C(C)C)c5c4)n3)nc2)CC1 [Abemaciclib] | -109% | 4.17 µM
12 | CCN(CC)CCCC(C)Nc1c2ccc(Cl)cc2nc2ccc(OC)cc12.Cl.Cl.O.O (stereo unspecified) [Quinacrine] | -90.5% | 8.33 µM
13 | c1cc(-c2cnn3cc(-c4ccc(OCCN5CCCCC5)cc4)cnc23)ccn1 [Dorsomorphin] | -82.7% | 4.68 µM
14 | COc1ccc(CCN(C)CCCOc2ccc([S+](=O)([O-])c3c(C(C)C)c4ccccc4n3C)cc2)cc1OC | -91.8% | 8.33 µM
15 | N#Cc1c(C2CCNCC2)cc(-c2c(O)cccc2OCC2CC2)nc1N [IKK-2 Inhibitor VIII] | -89.2% | 10.5 µM
16 | C[S+](=O)([O-])c1ccc([C@@H](CC2CCCC2)C(=O)Nc2nccs2)cc1 [Ro-28-1675] | -67.1% | 23.5 µM
17 | Cn1cc(/C=C/C(=O)c2cccc(F)c2)cc1/C=C/C(=O)NO [MC-1568] | -49.8% | 14.8 µM
18 | CC(C)c1ccccc1Cc1cc(C(=O)Nc2ccc([S+](=O)([O-])c3ccccc3C(C)(C)C)cc2)c(O)c(O)c1O [TW-37] | -90.9% | 20.9 µM
19 | COC1CC(C(=O)c2ccc3c(N)ncc(-c4ccc(-c5cnn(C)c5)cc4)c3n2)C1 (stereo unspecified) [CDK8i-51] | -34.9% | 5.25 µM
20 | C=CC(=O)Nc1ccc2ncnc(Nc3cccc(Br)c3)c2c1 | -86.8% | 13.2 µM
21 | CCN(CC)Cc1ccc2cc(COC(=O)Nc3ccc(C(=O)NO)cc3)ccc2c1 [Givinostat hydrochloride] | -88.8% | 0.263 µM
22 | COc1cc2c(cc1O)CC[C@@H]1[C@@H]2CC[C@]2(C)[C@@H](O)CC[C@@H]12 [2-Methoxyestradiol (2-MeOE2)] | -63.9% | 2.35 µM

Row | SMILES | efficacy [1] | AC50 cell viability [2]
23 | O=C(N[C@H]1CCC[C@H](CO)C1)C1CCN(c2nc3cc(Cl)c(-c4ccc(Cl)cc4)cc3o2)CC1 | -83.2% | 23.5 µM
24 | Oc1ccc(/C=C/c2cc(O)cc(O)c2)cc1 [Resveratrol] | -49.1% | 20.9 µM
25 | COc1cccc2c1CCCC2CCCN1CCN(C2CCCCC2)CC1 (stereo unspecified) [PB-28] | -91.3% | 16.6 µM
26 | Cc1cc(Nc2ncc3c(n2)N(C)C(=O)N(c2cc(NC(=O)c4cccc(C(F)(F)F)c4)ccc2C)C3)n(C)n1 [Pluripotin] | -74% | 0.235 µM
27 | ClC1=CC=C(C=C1)C(C#N)C2=C(Cl)C=C(C=C2Cl)N3\N=C/C(=O)NC3=O (stereo unspecified) [Diclazuril] | -56% | 23.5 µM
28 | O=C(NC1CCNCC1)c1n[nH]cc1NC(=O)c1c(Cl)cccc1Cl [AT-7519] | -65.1% | 0.235 µM
29 | CN1C(=O)C(=C/2N(C(=O)N(C3CC3)C(=O)C2=C1/NC4=CC=C(I)C=C4F)C5=CC=CC(=C5)NC(C)=O)\C [Trametinib] | -62.3% | 0.0468 µM
30 | Nc1cccc([S+](=O)([O-])N2CCCN([S+](=O)([O-])c3ccc4c(c3)OCCO4)CC2)c1 [DASA-58] | -59.9% | 14.8 µM
31 | NC/1=N/C(=O)C/2=C(/NCC3CN(CN23)C4=CC=C(C=C4)C(=O)N[C@@H](CCC(O)=O)C(O)=O)N1 (stereo partly specified) [Modufolin] | -92% | 8.33 µM
32 | COc1cc(N2CCC(N(C)C)CC2)ccc1Nc1ncc(Cl)c(Nc2ccccc2P(C)(C)=O)n1 | -87.7% | 0.742 µM
33 | NC1(Cc2ccc(Cl)cc2)CCN(c2ncnc3[nH]ccc23)CC1 | -95.2% | 13.2 µM
34 | CNCCN(C)Cc1c[nH]nc1-c1ccc(O[C@H]2C[C@H](OCCC3CCOCC3)C2)cc1 | -52% | 18.6 µM
35 | Nc1ncccc1-c1nc2ccc(-c3ccccc3)nc2n1-c1ccc(C2(N)CCC2)cc1 [Miransertib] | -126% | 14.8 µM
36 | C[C@H](NC(=O)C1=C2N=CC=C[N]2N=C1N)\C3=C\C4=CC=CC(=C4C(=O)N3C5=CC=CC=C5)C#CC6=C[N](C)N=C6 [IPI-549] | -43.1% | 8.11 µM
37 | Cn1ncc(Cl)c1-c1cc(C(=O)N[C@H](CN)Cc2cccc(F)c2)sc1Cl | -103% | 14.8 µM
38 | C[C@@H](Nc1cc(F)cc(F)c1)c1cc(C(=O)N(C)C)cc2c(=O)cc(N3CCOCC3)oc12 [AZD-8186] | -78.7% | 10.5 µM
39 | COc1cc(NCc2ccc3nc(N)nc(N)c3c2C)cc(OC)c1OC [Trimetrexate] | -77.8% | 1.05 µM
40 | COc1c(C)c2c(c(O)c1C/C=C(\C)CCC(=O)OCCN1CCOCC1)C(=O)OC2 [Mycophenolate mofetil] | -80.7% | 2.63 µM
41 | O=C(/C=C/C=C/c1ccc2c(c1)OCO2)N1CCCCC1 [Piperine] | -46% | 20.9 µM
42 | CC[C@@]1([C@@H]2O[C@@H]([C@H]3O[C@@](O)(CO)[C@H](C)C[C@@H]3C)C[C@@H]2C)CC[C@H]([C@]2(C)CC[C@]3(C[C@H](O)[C@@H](C)[C@@H]([C@@H](C)[C@@H](OC)[C@H](C)C(=O)[O-])O3)O2)O1 [Monensin sodium salt] | -47.4% | 0.456 µM
43 | COc1cc(N[S+](C)(=O)[O-])ccc1Nc1c2ccccc2nc2ccccc12 [Amsacrine] | -124% | 11.8 µM
